Laboratory results reported in US20060293390A1 (priority 2003, published 2006).
Several values for one entry are separate records, joined by “and”; a condition that tells them apart may be missing. Equal entries are not always repeated.

Columns and labels:
[1] = test system: bladder cancer cell line RT112; assay: Apoptosis: cytoplasmic histone-associated DNA fragments, photometric enzyme immunoassay (FIG. 1); type: cell-based, human
Protocol: FIG. 1: FIG. 1 is a representation of apoptosis measurements with a bladder cancer cell line RT112. […] Besides the control measurements without Diflunisal, there is also a “positive” control (CAM) registered with a defined calibrated system. Apoptosis was measured by determination of cytoplasmic histone-associated DNA fragments (mono- and oligonucleosomes) after induced cell death. The qualitative and quantitative in vitro determination of apoptosis in RT112 tumor cells was analyzed with a photometric enzyme immunoassay. In brief, RT112 cells were harvested, washed twice and resuspended in culture media to yield a density of 2.5×10^5/ml. 100 μl/well of the RT112 cell suspension were seeded into 96 well microtiter plates (obtainable from BECTON DICKINSON) and incubated overnight at 37° C. and 5% CO2. The supernatant was replaced by 90 μl pH-adjusted culture medium alone (control). Again, the cells were incubated for various time periods at 37° C. and 5% CO2. Supernatants of the cell cultures were discarded and RT112 cells were lysed in lysis buffer for 30 minutes at RT (25° C.). The cytoplasmic fractions were transferred into a streptavidin-coated microtiter plate, and the working procedure for the ELISA was performed according to the manufacturer's instructions (the ELISA test was obtained from BOEHRINGER […], Germany). […] But there is also a superimposed part of the third level.

leukemia cell line K-562 = assay: Pore formation: PI-stained dead cells by flow cytometry (FIG. 2); type: cell-based, human
Protocol: FIG. 2: FIG. 2 is a representation of pore formation under conditions of interstitial albumin concentration of 0.2 mM. […] The dead cell fraction compared to the total cell number is measured in a flow cytometer. The experiments were conducted with the leukemia cell line K-562. […] Of minor interest is the second pore formation process starting at pH 6.4, because this process functions beyond the acidity milieu of most tumors. […] Pore formation was measured by determination of the necrotic cells measured by flow cytometry. Cultures of the leukemia cell line K-562 were harvested, and 5×10^5 cells were added into 6 ml tubes (BD). After centrifugation (250×g; 5 min; room temperature (25° C.)) the cells were resuspended in 900 μl pH-adjusted culture medium (pH 6.0-7.4; RPMI 1640 without NaHCO3; available from SIGMA). Then test substances were added to the samples and cells were incubated in a final volume of 1 ml at 37° C. in a water bath. After the incubation period the pH of the samples was measured, and the cells were washed and resuspended in 300 μl FACS medium (PBS+2% FCS and 0.1% NaN3). Cells were stained with propidium iodide (PI; available form SIGMA; 25 μl/25 μg/tube) for 15 minutes at RT (25° C.). Subsequently analysis of the stained cells was performed on an EPICS XL-MCL flow cytometer (available from COULTER, Krefeld, Germany), equipped with a 15 mW argon laser at an excitation wavelength of 488 nm. PI fluorescence was measured in the red channel (FL3; 620 nm longpass filter). Data acquisition and analysis was performed using XL-System II software (available from the company COULTER). It can be seen that Diflunisal causes pH-dependent pore formation in cancer cells.

[2] = test system: bladder cancer cell line RT112; assay: Lactate transport: enzymatic determination of lactate in supernatants (FIG. 3); type: cell-based, human
Protocol: There is plotted a control measurement which indicates lactate efflux in dependence of pH and without any Diflunisal influence. […] The lactate transport was measured by qualitative enzymatic determination of lactate in supernatants of RT112 cells at 340 nm. RT112 cells were harvested, washed twice and resuspended in culture media to yield a density of 2×10^5/ml. 500 μl/well of the RT112 cell suspension were seeded into 24 well microtiter plates (BD) and incubated overnight at 37° C. and 5% CO2. The supernatant was replaced by 450 μl pH-adjusted culture medium (pH 6.0-7.4) and 50 μl of the solution of preferred substances or 500 μl/well pH-adjusted culture medium alone (control). Again, the cells were incubated for 24 h at 37° C. and 5% CO2. The measurement of lactate in the supernatants at 340 nm (PERKIN-ELMER, Lambda 17. UV-VIS Spectrophotometer, Überlingen, Germany) was performed according to the manufacturer's instructions (SIGMA DIAGNOSTICS, Deisenhofen, Germany; Lactate: Quantitative, Enzymatic Determination of Lactate in Whole Blood at 340 nm (Procedure No. 826-UV)).

RT112 cells = assay: Respiration: mitochondrial activity, XTT assay (FIG. 4); type: cell-based, human
Protocol: This behavior reflects the apoptosis induction from the second affinity level of albumin. Increasing the concentrations higher than 1.0 mM also the whole respiration activity within the pH range 7.0-7.4 is diminished and falls to 0 at 1.5 mM. The same is true with concentrations up to 2.0 mM. This effect is introduced by apoptosis at pH 7.0-7.4, accelerated by the third and fourth affinity level of albumin. […] The mitochondrial activity of RT112 was determined using a colorimetric assay (XTT assay). […] The mitochondrial succinate-tetrazolium reductase system cleaves the tetrazolium salt XTT to formazan. The amount of this dye is directly correlated to the number of metabolically active cells, as the enzyme system is only active in respirating and viable cells. For this purpose, RT112 cells were harvested, washed twice and resuspended in culture media to yield a density of 2.5×10^5/ml. 100 μl/well of the RT112 cell suspension were seeded into 96 well microtiter plates (BECTON DICKINSON (BD), Heidelberg, Germany) and incubated overnight at 37° C. and 5% CO2. The supernatant was replaced by 90 μl pH-adjusted culture medium (pH 6.0-7.4) and 10 μl of preferred substances or 100 μl/well pH-adjusted culture medium alone (control). The cells were incubated for various time periods at 37° C. and 5% CO2. Thereafter, cells were washed twice and reincubated in fresh pH-adjusted culture medium. After the incubation period, pH of each well was determined with highly sensitive microelectrodes before 50 μl XTT labeling mixture was added. The cells were further incubated for additional 4 h at 37° C. and 5% CO2. The spectrophotometric absorbance of the samples was measured using a microtiter plate (ELISA) reader ([…], Denkendorf, Germany) at a wavelength of […] (630 nm as reference). Data acquisition and analysis was performed using BioLinx 2.1 software ([…]).

[3] = Resorption of orally administered Diflunisal: concentration in blood / interstitial milieu; type: in vivo
[4] = test system: colon and colorectal cancer; conditions: cited from earlier work
[5] = 1.0 mM Diflunisal, 0.06 mM albumin, third affinity level
[6] = 3 Diflunisal molecules bound to albumin, 0.17 mM albumin
[7] = 1.0 mM Diflunisal, 0.2 mM albumin
[8] = ratio 6:1 Diflunisal to albumin

Q: Which “pH at which apoptosis ends” value [1, 5] does the source give for `O=C(O)c1cc(-c2ccc(F)cc2F)ccc1O` [Diflunisal, 5-(2,4-difluorophenyl)salicylic acid] here?
A: 7.4 pH

Q: And the “pH at which apoptosis starts” value [1, 5]?
A: 7.0 pH

Q: And the “pH range in which apoptosis occurs” value ([1]; 4 to 6 Diflunisal bound to albumin)?
A: 6.0-7.2 pH

Q: What about the “pH range in which apoptosis is achieved” value ([1]; Diflunisal/albumin ratio 7-9, 0.17 mM albumin) of the same compound?
A: 7.0-7.4 pH

Q: And the “starting pH of the second pore formation process” value (leukemia cell line K-562; 0.2 mM albumin)?
A: 6.4 pH

Q: And the “pH of pore formation, third affinity level of albumin” value (leukemia cell line K-562; 1.25 mM to 1.5 mM Diflunisal, 0.2 mM albumin)?
A: ≤ 7.0 pH

Q: And the “pH at which pore formation happens” value (leukemia cell line K-562; [6])?
A: < 6.5 pH

Q: What about the “interstitial concentration from which pore formation starts in a therapy-relevant pH range” value (leukemia cell line K-562; FIG. 2, 0.2 mM albumin) of the same compound?
A: ≥ 1.25 mM

Q: What about the “pH at which pore formation can be produced” value (leukemia cell line K-562; cancer cell suspensions, flow cytometer) of the same compound?
A: < 7.0 pH

Q: What about the “starting pH of a third transport system (fourth affinity level of albumin)” value (leukemia cell line K-562; not shown in FIG. 2) of the same compound?
A: 7.2-7.3 pH

Q: What about the “interstitial Diflunisal concentration at which pore formation starts” value (leukemia cell line K-562; pH<7.0) of the same compound?
A: about 0.7 mM

Q: What about the “pH range of lactate antiport” value [2, 6] of the same compound?
A: 6.6-7.4 pH

Q: And the “pH range in which lactate efflux is remarkably enhanced” value ([2]; FIG. 3, against control without Diflunisal)?
A: 6.0 to 7.2 pH

Q: And the Diflunisal/lactate antiport ([2]; three Diflunisal bound to albumin, first affinity stage)?
A: no antiport happens

Q: And the “pH at which deviation from normal respiration activity reaches its maximum” value (RT112 cells; [7])?
A: ~6.9 pH

Q: And the “pH at which inhibition of respiration activity starts” value (RT112 cells; [7])?
A: ~7.2 pH

Q: What about the “respiration activity within pH range 7.0-7.4” value (RT112 cells; 1.5 mM Diflunisal (same up to 2.0 mM), 0.2 mM albumin) of the same compound?
A: 0

Q: And the “pH range of the new respiration blockade effect” value (RT112 cells; 7 to 9 Diflunisal to albumin)?
A: 7.0-7.4 pH

Q: And the “blockade of the respiration chain” value (RT112 cells; ratio 4:1 Diflunisal to albumin)?
A: significant increase in activity

Q: And the “pH range in which the blockade effect declines to ineffectiveness” value (RT112 cells; [8])?
A: 6.9 to 7.2 pH

Q: And the “pH up to which the respiration blockade reaches an optimum” value (RT112 cells; [8])?
A: ≤ 6.9 pH

Q: What about the “blockade of the respiration chain” value (RT112 cells; three bound Diflunisal molecules per albumin) of the same compound?
A: no substantial blockade

Q: What about the concentration in blood ([3]; 100 mg/kg administered orally) of the same compound?
A: ≤ 1000 µM

Q: What about the “dose at which the saturation concentration is reached” value ([3]; oral administration) of the same compound?
A: 50 mg/kg

Q: And the “saturation concentration in blood” value ([3]; oral administration)?
A: 250 µg/mL

Q: And the “saturation concentration (resorption saturation)” value ([3]; oral administration, converted from 250 μg/ml)?
A: 1.00 mM and 1.0 mM

Q: What about the interstitial concentration ([3]; patient treatments, 1000 mg/day, Diflunisal to albumin ratio <2:1) of the same compound?
A: < 0.3 mM

Q: And the “active concentration of Diflunisal” value ([4]; Life Science 70, 2001, 37-48)?
A: suprapharmacological and intrinsically cytotoxic

Q: And the cancer cell kill ([4]; patient treatments, 1000 mg/day)?
A: no cancer cell kill takes place
